{"source": "paper PMC11477294", "about": "“In Vitro Profiling of the Antiviral Peptide TAT-I24” (International Journal of Molecular Sciences, 2024)", "molecular_target": "dsDNA (pcDNA3.1 (+) plasmid)", "test": "DNA binding assay (SYBR Gold fluorescence reduction)", "conditions": "reduction of fluorescence of SYBR Gold bound to pcDNA3.1 (+) plasmid (100 ng); non-linear regression; n = 8", "experimental": "DNA-binding of the peptides was analyzed using an assay based on the reduction of the fluorescence of DNA-bound SYBR^TM Gold dye in the presence of peptide. […] The selectivity index (SI), that is, the ratio between CC50 and IC50, was calculated for all peptides tested in HEK293 cells, except for C22del and C22del_cyc, for which the CC50 could not be calculated from the results of the cell viability assay (Table 1, Supplementary Figure S1).\nDNA binding was detected using an assay based on reduction of fluorescence emitted by SYBR^TM Gold (ThermoFisher, Darmstadt, Germany) bound to dsDNA in the presence of peptides using the pcDNA3.1 (+) plasmid (100 ng), as described previously.", "note": "Where a SMILES comes first, the peptide text is derived from it."}
{"smiles": "CC(C)C[C@H](NC(=O)[C@H](CS)NC(=O)[C@H](CCC(N)=O)NC(=O)[C@@H]1CCCN1C(=O)[C@@H]1CCCN1C(=O)[C@H](CCCNC(=N)N)NC(=O)[C@H](CCCNC(=N)N)NC(=O)[C@H](CCCNC(=N)N)NC(=O)[C@H](CCC(N)=O)NC(=O)[C@H](CCCNC(=N)N)NC(=O)[C@H](CCCNC(=N)N)NC(=O)[C@H](CCCCN)NC(=O)[C@H](CCCCN)NC(=O)[C@H](CCCNC(=N)N)NC(=O)CN)C(=O)N[C@@H](C)C(=O)N[C@@H](Cc1ccccc1)C(=O)N[C@@H](Cc1ccc(O)cc1)C(=O)N[C@@H](C)C(=O)N[C@@H](CS)C(=O)N[C@@H](Cc1ccccc1)C(=O)N[C@@H](CS)C(=O)O", "note": "[TAT-I24] (H-GRKKRRQRRRPPQCLAFYACFC-OH)", "values": [{"measurement": "IC50", "result": 1010, "unit": "nM"}]}
